# Data from ChEMBL document CHEMBL3745645, “Synthesis, in vitro antitumor activity, dihydrofolate reductase inhibition, DNA intercalation and structure-activity relationship studies of 1,3,5-triazine analogues” (Bioorg Med Chem Lett, 2016).
# The source made the active and inactive calls. The rule behind the calls is not given here.
# Columns and labels:
# K562 [1] = test: Cytotoxicity against human K562 cells at 10 uM after 48 hrs by SRB assay; assay type: functional; conditions: K562, 48 h, read-out: GI
# [2] = Cytotoxicity against human NCI-ADR-RES cells at 10 uM after 48 hrs by SRB assay; assay type: functional; conditions: read-out: GI
# [3] = Cytotoxicity against human HCT15 cells at 10 uM after 48 hrs by SRB assay; assay type: functional; conditions: HCT-15, 48 h, read-out: GI
# [4] = Cytotoxicity against human UACC62 cells at 10 uM after 48 hrs by SRB assay; assay type: functional; conditions: UACC-62, 48 h, read-out: GI
# [5] = Cytotoxicity against human DU145 cells after 48 hrs by SRB assay; assay type: functional; conditions: DU-145, 48 h, read-out: LC50 (the source's name)
# [6] = Cytotoxicity against human SW620 cells at 10 uM after 48 hrs by SRB assay; assay type: functional; conditions: SW-620, 48 h, read-out: GI
# [7] = Cytotoxicity against human SF295 cells at 10 uM after 48 hrs by SRB assay; assay type: functional; conditions: SF-295, 48 h, read-out: GI
# [8] = (§1) Cytotoxicity against human HCC2998 cells at 10 uM after 48 hrs by SRB assay; assay type: functional; conditions: HCC 2998, 48 h, read-out: GI
# A549 [9] = test: Cytotoxicity against human A549 cells at 10 uM after 48 hrs by SRB assay; assay type: functional; conditions: A549, 48 h, read-out: GI
# 786-0 = test: Cytotoxicity against human 786-0 cells after 48 hrs by SRB assay; assay type: functional; conditions: 786-0, 48 h, pooled result: one value given for 8 cell lines, strains, targets or settings
# Calf thymus DNA [10] = test: Binding affinity to calf thymus DNA by UV-vis spectrometric analysis; assay type: nucleic-acid assay; conditions: Bos taurus
# [11] = Cytotoxicity against human COLO205 cells at 10 uM after 48 hrs by SRB assay; assay type: functional; conditions: COLO 205, 48 h, read-out: GI
# [12] = Cytotoxicity against human LOXIMVI cells after 48 hrs by SRB assay; assay type: functional; conditions: LOX IMVI, pooled result: one value given for 9 cell lines, strains, targets or settings
# SK-MEL-2 = test: Cytotoxicity against human SK-MEL-2 cells at 10 uM after 48 hrs by SRB assay; assay type: functional; conditions: SK-MEL-2, 48 h, read-out: GI
# RPMI-8226 = test: (§2) Cytotoxicity against human RPMI8226 cells at 10 uM after 48 hrs by SRB assay; assay type: functional
# M14 = test: Cytotoxicity against human M14 cells at 10 uM after 48 hrs by SRB assay; assay type: functional; conditions: M14, 48 h, read-out: GI
# [13] = Cytotoxicity against human HOP92 cells at 10 uM after 48 hrs by SRB assay; assay type: functional; conditions: HOP-92, 48 h, read-out: GI
# [14] = Cytotoxicity against human SF268 cells after 48 hrs by SRB assay; assay type: functional; conditions: SF-268, 48 h, pooled result: one value given for 6 cell lines, strains, targets or settings
# A549 [15] = test: Cytotoxicity against human A549 cells after 48 hrs by SRB assay; assay type: functional; conditions: A549, 48 h, pooled result: one value given for 8 cell lines, strains, targets or settings
# [16] = Cytotoxicity against human PC3 cells at 10 uM after 48 hrs by SRB assay; assay type: functional; conditions: PC-3, 48 h, read-out: GI
# [17] = Cytotoxicity against human TK10 cells at 10 uM after 48 hrs by SRB assay; assay type: functional; conditions: TK-10, 48 h, read-out: GI
# [18] = Cytotoxicity against human PC3 cells after 48 hrs by SRB assay; assay type: functional; conditions: PC-3, 48 h; for GI50 / TGI: pooled result: one value given for 2 cell lines, strains, targets or settings
# [19] = Cytotoxicity against human LOXIMVI cells at 10 uM after 48 hrs by SRB assay; assay type: functional; conditions: LOX IMVI, read-out: GI
# [20] = Cytotoxicity against human Hs 578T cells at 10 uM after 48 hrs by SRB assay; assay type: functional; conditions: read-out: GI
# K562 [21] = test: Cytotoxicity against human K562 cells after 48 hrs by SRB assay; assay type: functional; conditions: K562, 48 h
# MDA-MB-435 = test: Cytotoxicity against human MDA-MB-435 cells at 10 uM after 48 hrs by SRB assay; assay type: functional; conditions: MDA-MB-435, 48 h, read-out: GI
# MCF7 = test: Cytotoxicity against human MCF7 cells after 48 hrs by SRB assay; assay type: functional; conditions: MCF7, 48 h, pooled result: one value given for 6 cell lines, strains, targets or settings
# [22] = Cytotoxicity against human OVCAR5 cells at 10 uM after 48 hrs by SRB assay; assay type: functional; conditions: OVCAR-5, 48 h, read-out: GI
# CCRF-CEM = test: Cytotoxicity against human CCRF-CEM cells after 48 hrs by SRB assay; assay type: functional; conditions: for GI50 / TGI: pooled result: one value given for 6 cell lines, strains, targets or settings
# [23] = (§3) Cytotoxicity against human UACC257 cells at 10 uM after 48 hrs by SRB assay; assay type: functional; conditions: UACC-257, 48 h, read-out: GI
# Calf thymus DNA [24] = test: Binding affinity to calf thymus DNA assessed as melting temperature by spectrophotometric analysis (reference value: 60 degC); assay type: nucleic-acid assay; conditions: Bos taurus
# [25] = Cytotoxicity against human BT549 cells at 10 uM after 48 hrs by SRB assay; assay type: functional; conditions: BT-549, 48 h, read-out: GI
# ACHN = test: Cytotoxicity against human ACHN cells at 10 uM after 48 hrs by SRB assay; assay type: functional; conditions: read-out: GI
# [26] = (§4) Cytotoxicity against human OVCAR4 cells at 10 uM after 48 hrs by SRB assay; assay type: functional; conditions: OVCAR-4, 48 h, read-out: GI
# NCI-H23 = test: Cytotoxicity against human NCI-H23 cells at 10 uM after 48 hrs by SRB assay; assay type: functional; conditions: NCI-H23, 48 h, read-out: GI
# HCC 2998 = test: as §1; assay type: functional
# [27] = as §2; assay type: functional; conditions: RPMI-8226, 48 h, read-out: GI
# UACC-257 = test: as §3; assay type: functional
# OVCAR-4 = test: as §4; assay type: functional
compound,measurement,setting,value
Cc1nc2cc(Nc3nc(Nc4ccc(F)cc4)nc(-c4cccs4)n3)ccc2n1Cc1ccccc1,inhibition of growth at 10 µM,K562 [1],56.9%
same,inhibition of growth at 10 µM,[2],42.7%
same,inhibition of growth at 10 µM,[3],69.7%
same,inhibition of growth at 10 µM,[4],38.5%
same,CC50,[5],> 100 µM
same,inhibition of growth at 10 µM,[6],31.9%
same,inhibition of growth at 10 µM,[7],48.1%
same,inhibition of growth at 10 µM,[8],27.9%
same,inhibition of growth at 10 µM,A549 [9],56.9%
same,GI50,786-0,4.54 µM
same,LC50 (concentration killing 50% of cells),786-0,> 100 µM
same,TGI,786-0,43.5 µM
same,Ka,Calf thymus DNA [10],3.19 ×10⁴ /M
same,inhibition of growth at 10 µM,[11],43.2%
same,GI50,[12],4.72 µM
same,LC50,[12],39 µM
same,TGI,[12],19.7 µM
same,inhibition of growth at 10 µM,SK-MEL-2,27.1%
same,growth inhibition (GI),RPMI-8226,Active
same,inhibition of growth at 10 µM,M14,46.9%
same,inhibition of growth at 10 µM,[13],78%
same,GI50,[14],4.66 µM
same,LC50 (concentration killing 50% of cells),[14],43 µM
same,TGI,[14],14.4 µM
same,GI50,A549 [15],7.62 µM
same,LC50,A549 [15],55.4 µM
same,TGI,A549 [15],33.1 µM
same,inhibition of growth at 10 µM,[16],70.6%
same,inhibition of growth at 10 µM,[17],37.3%
same,LC50,[18],> 100 µM
same,GI50,[18],5.2 µM
same,TGI,[18],52.2 µM
same,inhibition of growth at 10 µM,[19],35.1%
same,inhibition of growth at 10 µM,[20],49.7%
same,LC50,K562 [21],> 100 µM
same,inhibition of growth at 10 µM,MDA-MB-435,56.2%
same,GI50,MCF7,5.24 µM
same,LC50 (concentration killing 50% of cells),MCF7,79.2 µM
same,TGI,MCF7,21.9 µM
same,inhibition of growth at 10 µM,[22],7.98%
same,LC50,CCRF-CEM,> 100 µM
same,GI50,CCRF-CEM,2.59 µM
same,TGI,CCRF-CEM,9.49 µM
same,inhibition of growth at 10 µM,[23],42.5%
same,Tm,Calf thymus DNA [24],68.5 °C
same,inhibition of growth at 10 µM,[25],30.5%
same,inhibition of growth at 10 µM,ACHN,54.4%
same,inhibition of growth at 10 µM,[26],49%
Cc1nc2ccc(Nc3nc(Cl)nc(Nc4ccc(F)cc4)n3)cc2n1Cc1ccccc1,inhibition of growth at 10 µM,K562 [1],63.1%
same,inhibition of growth at 10 µM,[3],44.2%
same,inhibition of growth at 10 µM,[4],48.6%
same,CC50,[5],52.5 µM
same,inhibition of growth at 10 µM,[6],17.2%
same,inhibition of growth at 10 µM,NCI-H23,11.8%
same,inhibition of growth at 10 µM,[7],21.8%
same,growth inhibition (GI),HCC 2998,inactive
same,inhibition of growth at 10 µM,A549 [9],23.8%
same,GI50,786-0,7.49 µM
same,LC50 (concentration killing 50% of cells),786-0,55.5 µM
same,TGI,786-0,30 µM
same,Ka,Calf thymus DNA [10],6.03 ×10⁴ /M
same,inhibition of growth at 10 µM,[11],8.82%
same,GI50,[12],5.92 µM
same,LC50,[12],53.9 µM
same,TGI,[12],18.4 µM
same,inhibition of growth at 10 µM,[27],87.5%
same,inhibition of growth at 10 µM,M14,17.7%
same,inhibition of growth at 10 µM,[13],21.2%
same,GI50,[14],6.39 µM
same,LC50 (concentration killing 50% of cells),[14],43.5 µM
same,TGI,[14],24.3 µM
same,GI50,A549 [15],6.23 µM
same,LC50,A549 [15],69.6 µM
same,TGI,A549 [15],20.3 µM
same,inhibition of growth at 10 µM,[16],19.2%
same,inhibition of growth at 10 µM,[17],7.64%
same,LC50,[18],52.5 µM
same,GI50,[18],8.27 µM
same,TGI,[18],27.7 µM
same,inhibition of growth at 10 µM,[19],64.8%
same,inhibition of growth at 10 µM,[20],11.1%
same,LC50,K562 [21],> 100 µM
same,inhibition of growth at 10 µM,MDA-MB-435,11.2%
same,GI50,MCF7,4.21 µM
same,LC50 (concentration killing 50% of cells),MCF7,75.8 µM
same,TGI,MCF7,11.9 µM
same,LC50,CCRF-CEM,> 100 µM
same,GI50,CCRF-CEM,3.34 µM
same,TGI,CCRF-CEM,8.68 µM
same,growth inhibition (GI),UACC-257,inactive
same,Tm,Calf thymus DNA [24],57 °C
same,inhibition of growth at 10 µM,[25],39.8%
same,inhibition of growth at 10 µM,ACHN,28.4%
same,growth inhibition (GI),OVCAR-4,inactive
